The record followed here is patent US20240245691A1 (Sitryx Therapeutics Limited, priority 2021, published 2024).

Data set [1] has as its system IL-1β. In words: THP-1 AlphaLISA IL-1β cytokine assay (differentiated THP-1 cells). The settings on record: Homo sapiens, THP-1, differentiated THP-1 cells. The data set is classed as cell-based. How it is done:
(§1) Measuring Inhibitory Effects on IL-1V Cytokine and IL-6 Output from THP-1s
(§2) The cytokine inhibition profiles of compounds of formula (I) were determined in a differentiated THP-1 cell assay. All assays were performed in RPMI-1640 growth medium (Gibco), supplemented with 10% fetal bovine serum (FBS; Gibco), 1% penicillin-streptomycin and 1% sodium pyruvate unless specified otherwise. The IL-1β and IL-6 cytokine inhibition assays were run in a background of differentiated THP-1 cells as described below. All reagents described were from Sigma-Aldrich unless specified otherwise. Compounds were prepared as 10 mM DMSO stocks.
(§3) THP-1 cells were expanded as a suspension up to 80% confluence in appropriate growth medium. Cells were harvested, suspended, and treated with an appropriate concentration of phorbol 12-myristate 13-acetate (PMA) over a 72 hr period (37° C./5% CO2).
(§4) Following 72 hrs of THP-1 cell incubation, cellular medium was removed and replaced with fresh growth media containing 1% of FBS. Working concentrations of compounds were prepared separately in 10% FBS treated growth medium and pre-incubated with the cells for 30 minutes (37° C./5% CO2). Following the 30 minute compound pre-incubation, THP-1s were treated with an appropriate concentration of LPS and the THP-1s were subsequently incubated for a 24 hr period (37° C./5% CO2). An appropriate final concentration of Nigericin was then dispensed into the THP-1 plates and incubated for 1 hour (37° C./5% CO2) before THP-1 supernatants were harvested and collected in separate polypropylene 96-well holding plates.
(§5) Reagents from each of the IL-1β and IL-6 commercial kits (Perkin Elmer) were prepared and run according to the manufacturer's instructions. Subsequently, fluorescence signal detection in a microplate reader was measured (EnVision® Multilabel Reader, Perkin Elmer).
(§6) Percentage inhibition was calculated per cytokine by normalising the sample data to the high and low controls used within each plate (+/−LPS respectively).
(§7) Dimethyl itaconate and 4-octyl itaconate were included as comparator compounds.
(In general: Bead proximity is the source of the signal in Alpha formats.)

The subject of data set [2] is IL-6. Kind of data set: THP-1 AlphaLISA IL-6 cytokine assay (differentiated THP-1 cells). The settings on record: Homo sapiens, THP-1, differentiated THP-1 cells, LPS 24 hr then Nigericin 1 hour; read-out: IL-6 (IC50). Type of data set: cell-based. How it is done: as §1, §2, §3, §4, §5, §6, §7
Data set [3] in a line: Hepatocyte stability assay, human. The data set is classed as in vitro ADME. The settings on record: human, hepatocytes, T½. From the text: (§8) Defrosted cryo-preserved hepatocytes (viability>70%) were used to determine the metabolic stability of a compound via calculation of intrinsic clearance (CIint; a measure of the removal of a compound from the liver in the absence of blood flow and cell binding). Clearance data are particularly important for in vitro work as they can be used in combination with in vivo data to predict the half-life and oral bioavailability of a drug.
(§9) The metabolic stability in hepatocytes assay involved a time-dependent reaction using both positive and negative controls. The cells must be pre-incubated at 37° C. then spiked with test compound (and positive control); samples taken at pre-determined time intervals were analysed to monitor the change in concentration of the initial drug compound over 60 minutes. A buffer incubation reaction (with no hepatocytes present) acted as a negative control and two cocktail solutions, containing compounds with known high and low clearance values (verapamil/7-hydroxycoumarin and propranolol/diltiazem), acted as positive controls. • 1. The assay was run with a cell concentration of 0.5×10^6 cells/mL in Leibovitz buffer. • 2. All compounds and controls were run in duplicate. • 3. Compound concentration was 10 μM. • 4. All compounds and controls were incubated with both cells and buffer to show turnover is due to hepatic metabolism. • 5. All wells on the incubation plate had 326.7 μL of either cells or buffer added. • 6. Prior to assay, cell and buffer-only incubation plates were preincubated for 10 mins at 37° C. • 7. The assay was initiated by adding compounds, 3.3 μL of 1 mM in 10% DMSO-90% Buffer; final DMSO concentration is 0.1%. • 8. Samples were taken at regular timepoints (0, 5, 10, 20, 40, 60 min) until 60 mins. • 9. Sample volume was 40 μL and added to 160 μL of crash solvent (acetonitrile with internal standard) and stored on ice. • 10. At the end of the assay, the crash plates were centrifuged at 3500 rpm for 20 mins at 4° C. • 11. 80 μL of clear supernatant was removed and mixed with 80 μL of deionised water before being analysed by LC-MS/MS.
(§10) Raw LC-MS/MS data were exported to, and analysed in, Microsoft Excel for determination of intrinsic clearance. The percentage remaining of a compound was monitored using the peak area of the initial concentration as 100%. Intrinsic clearance and half-life values were calculated using a graph of the natural log of percentage remaining versus the time of reaction in minutes.
(§11) 4-Octyl itaconate was included as a comparator compound.

The test system of data set [4] is cryo-preserved hepatocytes. Kind of data set: Hepatocyte stability assay, human. The data set is classed as in vitro ADME. The settings on record: human, hepatocytes.
Text: as §8, §9, §10, §11

A short description of data set [5]: Hepatocyte stability assay, mouse. The data set is classed as in vitro ADME. The settings on record: mouse, hepatocytes, T½.
Text: as §8, §9, §10, §11

Data set [6] concerns cryo-preserved hepatocytes. Kind of data set: Hepatocyte stability assay, mouse. The settings on record: mouse, hepatocytes. Type of data set: in vitro ADME.
Text: as §8, §9, §10, §11

[7] abbreviates: LPS 24 hr then Nigericin 1 hour, read-out: IL-1β (IC50).

Where two headings read alike, the source gives them in different places.

Regarding `C=C(CC(=O)NC1(c2ccc(C(F)(F)F)cc2)COC1)C(=O)O` [Example 13, 2-methylene-4-oxo-4-((3-(4-(trifluoromethyl)phenyl)oxetan-3-yl)amino)butanoic acid], the IC50 (usually the point on the concentration scale where inhibition reaches its midpoint) in data set [1] (setting [7]) is 19.5 µM; in data set [2], above 31.6 µM. For the same compound, the half-life – broadly, how long it takes for the measured level to halve – at 10 μM was 7.17 h in data set [3] and above 7.67 h in data set [5]. The Clint in data set [4] was 3 μL min^−1 10^−6 cells; in data set [6], below 3 μL min^−1 10^−6 cells.
Take `C=C(CC(=O)NC1(c2ccc(C(F)(F)F)cc2)CCCC1)C(=O)O` [Example 14, 2-methylene-4-oxo-4-((1-(4-(trifluoromethyl)phenyl)cyclopentyl)amino) butanoic acid]: the IC50 in data set [1] (setting [7]) is 58.3 µM; in data set [2], above 100 µM. The half-life at 10 μM is above 7.67 h in data set [3] and 6.48 h in data set [5]. Besides, the figures for the Clint in data set [4] and in data set [6] were below 3 μL min^−1 10^−6 cells and 4 μL min^−1 10^−6 cells, respectively.
With `C=C(CC(=O)N[C@@H](C)c1ccc(Br)cc1)C(=O)O` [Example 16, (S)-4-((1-(4-bromophenyl)ethyl)amino)-2-methylene-4-oxobutanoic acid], the IC50 in data set [1] (setting [7]) is 3.8 µM; in data set [1] (footnote a: data from repeated experiments, read-out: IL-1β (IC50), data from repeated experiments), 4.9 µM; in data set [2] it was above 56.2 µM. Moreover, the half-life at 10 μM in data set [3] amounted to 4.68 h; in data set [5] it was 4.1 h. For the same compound, the Clint in data set [4] is given as 6 μL min^−1 10^−6 cells; in data set [6], 7 μL min^−1 10^−6 cells.
As for `C=C(CC(=O)N[C@@H](C)c1ccc(SC(F)(F)F)cc1)C(=O)O` [Example 17], the IC50 was 13.9 µM in data set [1] (setting [7]) and above 31.6 µM in data set [2]. Further, the half-life at 10 μM in data set [3] amounted to 3.72 h; in data set [5] it was 1.58 h. Also, the Clint amounted to 8 μL min^−1 10^−6 cells in data set [4] and 16 μL min^−1 10^−6 cells in data set [6].
`C=C(CC(=O)N[C@@H](C)c1ccc(C(F)(F)F)c(F)c1)C(=O)O` [Example 19, (S)-4-((1-(3-fluoro-4-(trifluoromethyl)phenyl)ethyl)amino)-2-methylene-4-oxobutanoic acid]: the values for the IC50 in data set [1] (setting [7]) and in data set [2] were 8.8 µM and above 31.6 µM, respectively. Moreover, the half-life at 10 μM in data set [3] is 7.28 h; in data set [5], 6.7 h. Besides, the Clint in data set [4] and in data set [6] was 4 μL min^−1 10^−6 cells throughout.
For `C=C(CC(=O)N[C@@H](C)c1ccc(C(F)(F)C(F)(F)F)cc1)C(=O)O` [Example 20, (S)-2-methylene-4-oxo-4-((1-(4-(perfluoroethyl)phenyl)ethyl)amino)butanoic acid], the IC50 in data set [1] (setting [7]) was 17.4 µM; in data set [2], above 100 µM. Also, the results for the half-life at 10 μM in data set [3] and in data set [5] were above 7.67 h and 0.633 h, respectively. For the same compound, the figures for the Clint in data set [4] and in data set [6] were below 3 μL min^−1 10^−6 cells and 38 μL min^−1 10^−6 cells, respectively.
For the compound `C=C(CC(=O)N[C@H](c1ccc(C(F)(F)F)cc1)C(F)(F)F)C(=O)O` [Example 21, (R)-2-methylene-4-oxo-4-((2,2,2-trifluoro-1-(4-(trifluoromethyl)phenyl)ethyl)amino)butanoic acid], the figures for the IC50 in data set [1] (setting [7]) and in data set [2] were 4 µM and above 100 µM, respectively. Moreover, the half-life at 10 μM in data set [3] was above 7.67 h; in data set [5], 0.367 h. Moreover, the Clint in data set [4] is reported as below 3 μL min^−1 10^−6 cells; in data set [6], 76 μL min^−1 10^−6 cells.
Regarding `C=C(CC(=O)N[C@@H](C)c1ccc(C(F)(F)F)cc1)C(=O)OCCN(C)C` [Example 26, 2-(dimethylamino)ethyl (S)-2-methylene-4-oxo-4-((1-(4-(trifluoromethyl)phenyl)ethyl)amino)butanoate], the IC50 in data set [1] (setting [7]) stood at 5.1 µM; in data set [2], 3.9 µM. The half-life at 10 μM in data set [3] was 0.4 h; in data set [5], below 0.05 h. Besides, the Clint is 62 μL min^−1 10^−6 cells in data set [4] and above 460 μL min^−1 10^−6 cells in data set [6].
